From ChEMBL document CHEMBL1201862, “PubChem BioAssay data set” (2004)
One block for each compound: values may come before it. Calls of active or inactive are those of the source.

Assays:
[1] = growth suppression of PTEN-null colon cells, dose response, cell-based, HCT116 PTEN knockout (AID 1047); assay type: functional;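 further: HCT116 colon tumor cells with PTEN knocked out; cells exposed to compound for 60 hours before readout; potency for loss of cell viability measured by luminescence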
[2] = growth suppression of beta-catenin-knockout colon cells, dose response, cell-based, HCT116, human colon tumor (AID 1045); assay type: functional;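 further: HCT116 colon tumor cells with beta catenin knocked out; cells exposed to compound for 60 hours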
[3] = molecular target: T1, Dual specificity protein phosphatase 6 (Rattus norvegicus, UniProt Q64346); experiment: MKP-3 phosphatase inhibitors, primary screen, biochemical, rat enzyme, in vitro (AID 425)
T1 sequence (Q64346 whole entry): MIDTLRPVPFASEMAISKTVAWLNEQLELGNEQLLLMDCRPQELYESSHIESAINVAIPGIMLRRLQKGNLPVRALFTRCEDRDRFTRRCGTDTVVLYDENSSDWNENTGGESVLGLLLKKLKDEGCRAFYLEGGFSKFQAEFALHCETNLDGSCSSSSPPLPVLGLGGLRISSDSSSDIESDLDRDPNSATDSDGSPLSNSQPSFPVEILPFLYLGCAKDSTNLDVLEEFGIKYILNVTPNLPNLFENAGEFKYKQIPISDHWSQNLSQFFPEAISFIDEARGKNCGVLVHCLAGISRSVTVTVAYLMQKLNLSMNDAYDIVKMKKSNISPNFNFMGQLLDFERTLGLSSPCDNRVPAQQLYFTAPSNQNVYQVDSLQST

[4] = molecular target: T2, Mannose-6-phosphate isomerase (Homo sapiens, UniProt P34949); experiment: inhibitors of human PMI, primary screen, biochemical, fluorescence intensity, coupled assay (AID 1209)
T2 sequence (P34949 whole entry): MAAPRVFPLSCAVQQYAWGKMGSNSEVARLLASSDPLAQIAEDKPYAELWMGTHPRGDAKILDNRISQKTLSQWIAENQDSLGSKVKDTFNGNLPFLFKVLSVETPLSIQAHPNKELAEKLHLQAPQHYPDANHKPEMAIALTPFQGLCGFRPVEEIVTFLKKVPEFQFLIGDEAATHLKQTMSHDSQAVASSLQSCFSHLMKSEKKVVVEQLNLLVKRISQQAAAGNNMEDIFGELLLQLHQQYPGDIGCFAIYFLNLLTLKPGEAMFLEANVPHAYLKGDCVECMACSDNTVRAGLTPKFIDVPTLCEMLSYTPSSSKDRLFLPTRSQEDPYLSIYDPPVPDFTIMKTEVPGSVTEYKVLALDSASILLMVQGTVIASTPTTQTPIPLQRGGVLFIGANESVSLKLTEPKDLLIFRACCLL

[5] = molecular target: T2, Mannose-6-phosphate isomerase; experiment: human PMI inhibitors, high substrate, primary screen, biochemical, fluorescence intensity, high mannose 6-phosphate (AID 1220)
Estrogen receptor beta [6] = molecular target: T3, Estrogen receptor beta (Homo sapiens, UniProt Q92731);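 further: recombinant ER-beta bound to coactivator SRC1 peptide in presence of estradiol agonist; inhibitors block coactivator peptide binding and lower the FRET signal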
T3 sequence (Q92731 whole entry): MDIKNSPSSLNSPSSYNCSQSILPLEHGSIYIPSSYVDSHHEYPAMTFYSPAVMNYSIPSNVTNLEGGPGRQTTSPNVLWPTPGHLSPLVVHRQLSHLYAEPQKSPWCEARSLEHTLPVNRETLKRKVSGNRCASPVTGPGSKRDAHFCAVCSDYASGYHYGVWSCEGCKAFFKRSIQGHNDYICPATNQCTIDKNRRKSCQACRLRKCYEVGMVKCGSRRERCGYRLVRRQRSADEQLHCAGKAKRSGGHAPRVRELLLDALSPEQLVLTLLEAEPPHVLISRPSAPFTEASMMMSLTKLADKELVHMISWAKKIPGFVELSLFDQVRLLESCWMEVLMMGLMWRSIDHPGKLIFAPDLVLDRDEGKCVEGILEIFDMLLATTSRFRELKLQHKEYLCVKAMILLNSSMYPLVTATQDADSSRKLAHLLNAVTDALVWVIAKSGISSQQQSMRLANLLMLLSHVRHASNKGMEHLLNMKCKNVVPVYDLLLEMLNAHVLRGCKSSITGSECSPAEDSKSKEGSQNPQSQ

Estrogen receptor beta [7] = molecular target: T3, Estrogen receptor beta; experiment: ERβ–SRC-3 coactivator interaction inhibitors, confirmation, orthogonal assay, biochemical, ELISA, streptavidin-HRP readout (AID 1060)
[8] = molecular target: Neuropeptide Y receptor type 1 (Homo sapiens, UniProt P25929); assay type: functional;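 further: HEK293 cells with a CNG channel challenged with NPY then isoproterenol; potency as antagonist that reverses NPY suppression of cAMP signal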
Neuropeptide Y receptor type 1, sequence (P25929 whole entry): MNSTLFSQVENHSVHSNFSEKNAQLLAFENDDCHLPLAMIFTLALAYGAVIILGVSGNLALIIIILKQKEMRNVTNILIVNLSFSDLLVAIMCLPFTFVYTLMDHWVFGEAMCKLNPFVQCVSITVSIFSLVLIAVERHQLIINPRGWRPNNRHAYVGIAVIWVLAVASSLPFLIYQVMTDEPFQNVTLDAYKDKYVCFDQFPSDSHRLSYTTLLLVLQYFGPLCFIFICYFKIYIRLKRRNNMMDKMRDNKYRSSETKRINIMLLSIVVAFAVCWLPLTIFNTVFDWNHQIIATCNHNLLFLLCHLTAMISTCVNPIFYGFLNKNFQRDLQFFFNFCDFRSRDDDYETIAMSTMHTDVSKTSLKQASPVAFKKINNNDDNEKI

[9] = molecular target: Luciferin 4-monooxygenase (Photinus pyralis, UniProt P08659); experiment: firefly luciferase enzyme inhibitors, dose response, biochemical, luminescence (AID 1891)
Luciferin 4-monooxygenase, sequence (P08659 whole entry): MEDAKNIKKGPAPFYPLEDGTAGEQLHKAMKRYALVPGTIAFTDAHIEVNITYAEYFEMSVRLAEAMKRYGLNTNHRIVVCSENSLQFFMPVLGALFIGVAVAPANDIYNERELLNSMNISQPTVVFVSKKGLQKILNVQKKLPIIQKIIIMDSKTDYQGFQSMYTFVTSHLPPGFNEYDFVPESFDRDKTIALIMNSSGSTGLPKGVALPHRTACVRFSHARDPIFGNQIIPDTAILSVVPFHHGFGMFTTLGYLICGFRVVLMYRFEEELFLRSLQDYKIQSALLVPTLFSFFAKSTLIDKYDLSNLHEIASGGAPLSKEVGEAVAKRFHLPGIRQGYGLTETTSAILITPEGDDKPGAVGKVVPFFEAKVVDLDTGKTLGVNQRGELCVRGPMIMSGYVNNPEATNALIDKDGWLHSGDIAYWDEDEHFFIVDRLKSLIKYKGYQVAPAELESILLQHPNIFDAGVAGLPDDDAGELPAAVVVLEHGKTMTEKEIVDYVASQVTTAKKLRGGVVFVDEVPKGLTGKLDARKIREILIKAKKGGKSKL

[10] = Luminescence Cell-Based Dose Confirmation HTS to Identify Inhibitors of Platelet Dense Granule Release. [Related pubchem assays: 1663 (Primary HTS), 1678 (Summary of Project)]; assay type: functional
[11] = molecular target: Neuropeptide Y receptor type 2 (Homo sapiens, UniProt P49146); assay type: functional, cell-based;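 further: HEK293 cells expressing the receptor and a CNG channel; stimulus was NPY near EC95 followed by isoproterenol to raise cAMP; antagonist potency measured as restoring cAMP signal that NPY suppresses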
Neuropeptide Y receptor type 2, sequence (P49146 whole entry): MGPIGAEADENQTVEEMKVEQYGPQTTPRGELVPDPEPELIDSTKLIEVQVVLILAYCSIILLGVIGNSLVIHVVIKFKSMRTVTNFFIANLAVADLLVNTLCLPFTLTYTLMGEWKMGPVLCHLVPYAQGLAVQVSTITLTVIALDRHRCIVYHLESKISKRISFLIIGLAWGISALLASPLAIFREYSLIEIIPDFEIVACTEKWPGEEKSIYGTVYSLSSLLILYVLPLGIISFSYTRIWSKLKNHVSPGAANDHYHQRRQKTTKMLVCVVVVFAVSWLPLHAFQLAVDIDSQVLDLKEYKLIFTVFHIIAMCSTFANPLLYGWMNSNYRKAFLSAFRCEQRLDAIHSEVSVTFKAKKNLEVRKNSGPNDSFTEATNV

Vero = experiment: host cell cytotoxicity of antiviral hits, dose response, cytotoxicity control for West Nile virus antiviral project, secondary assay (AID 1650); assay type: functional; conditions: Chlorocebus sabaeus
[12] = molecular target: T4, Ubiquitin-conjugating enzyme E2 N (Homo sapiens, UniProt P61088); assay type: functional;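 further: Dose-response confirmation in a TR-FRET assay detecting UBC13-driven polyubiquitin chain formation, inhibition measured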
T4 sequence (P61088 whole entry): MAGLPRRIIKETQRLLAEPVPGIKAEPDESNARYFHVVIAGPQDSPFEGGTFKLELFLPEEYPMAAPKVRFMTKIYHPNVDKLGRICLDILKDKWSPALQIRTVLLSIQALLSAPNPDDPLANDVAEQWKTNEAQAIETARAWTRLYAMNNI

Structure (SMILES): O=C1CC(c2ccccc2)c2cc(O)ccc2O1 (centres undefined)
- EC50 [1]: 32 µM (active)
- EC50 [2]: 34.8 µM (active)
- IC50 [3]: > 100 µM (not active)

- IC50 [4]: > 50 µM (not active)
- IC50 [5]: > 50 µM (not active)
Structure (SMILES): CC1(C)Oc2ccc3ccc(=O)oc3c2-c2cnoc21

- IC50 (Estrogen receptor beta [6]): 3.62 µM (active)
- IC50 (Estrogen receptor beta [7]): 106 µM (not active)
Structure (SMILES): CCOC(=O)Cn1cnc2sc3c(c2c1=O)CCC3

Structure (SMILES): Cc1ccc(-c2cc(C(=O)Nc3ccc4c(c3)OCCO4)c3ccccc3n2)cc1
- IC50 [8]: 5.01 µM (active)
- EC50 [9]: 1.06 µM (active)
- EC50 [10]: 16.9 µM (active)
- IC50 [11]: 5.35 µM (active)

- IC50 (Estrogen receptor beta [7]): 0.0633 µM (not active)
Structure (SMILES): CN(C)c1ccc(NC(=O)N2CCOCC2)cc1

- IC50 [12]: > 20 µM (inactive)
Structure (SMILES): Cc1ccc(Nc2nc(NCCO)c3ccccc3n2)cc1C
- CC50 (Vero): 13.4 µM (active)
